# Measured values reported in ChEMBL document CHEMBL3272125, “Antiprotozoal thiazoles. 2. 2-(5-Nitro-2-furyl-, thiazolyl-, and 1-methylimidazolyl-)thiazoles” (J Med Chem, 1977).
# Legend:
# [1] = test system: Trypanosoma cruzi; assay: Antiprotozoal activity against Trypanosoma cruzi BH infected in CFW mouse assessed as increase in host mean survival time at 5 mg/kg, po administered daily for 5 days starting 4 hrs post-parasite infection (reference value: 14 +/- 1 days); format: functional
# [2] = test system: Trypanosoma cruzi; assay: Antiprotozoal activity against Trypanosoma cruzi BH infected in CFW mouse assessed as increase in host mean survival time at 200 mg/kg, po administered daily for 5 days starting 4 hrs post-parasite infection (reference value: 14 +/- 1 days); format: functional
# [3] = test system: Trypanosoma cruzi; assay: Antiprotozoal activity against high myocardial tissue infiltration leishmanial form of Trypanosoma cruzi BHC/10 infected in CFW mouse assessed as increase in host mean survival time at 25 mg/kg, po administered daily for 10 days starting 4 hrs post-parasite infection; format: functional
# [4] = test system: Trypanosoma cruzi; assay: Antiprotozoal activity against Trypanosoma cruzi BH infected in CFW mouse assessed as increase in host mean survival time at 50 mg/kg, po administered daily for 5 days starting 4 hrs post-parasite infection (reference value: 14 +/- 1 days); format: functional
# [5] = test system: Trypanosoma cruzi; assay: Antiprotozoal activity against Trypanosoma cruzi Y infected in CFW mouse assessed as increase in host mean survival time at 5 mg/kg, po administered daily for 10 days starting 4 hrs post-parasite infection; format: functional
# [6] = test system: Trypanosoma cruzi; assay: Antiprotozoal activity against Trypanosoma cruzi BH infected in CFW mouse assessed as increase in host mean survival time at 10 mg/kg, ip administered daily for 5 days starting 4 hrs post-parasite infection (reference value: 14 +/- 1 days); format: functional; conditions: route intraperitoneal
# [7] = test system: Trypanosoma cruzi; assay: Antiprotozoal activity against Trypanosoma cruzi BH infected in CFW mouse assessed as increase in host mean survival time at 5 mg/kg, ip administered daily for 5 days starting 4 hrs post-parasite infection (reference value: 14 +/- 1 days); format: functional; conditions: route intraperitoneal
# [8] = test system: Trypanosoma cruzi; assay: Antiprotozoal activity against high myocardial tissue infiltration leishmanial form of Trypanosoma cruzi BHC/10 infected in CFW mouse assessed as increase in host mean survival time at 10 mg/kg, po administered daily for 10 days starting 4 hrs post-parasite infection; format: functional
# [9] = test system: Trypanosoma cruzi; assay: Antiprotozoal activity against Trypanosoma cruzi BH infected in CFW mouse assessed as increase in host mean survival time at 25 mg/kg, po administered daily for 5 days starting 4 hrs post-parasite infection (reference value: 14 +/- 1 days); format: functional
# [10] = test system: Trypanosoma cruzi; assay: Antiprotozoal activity against Trypanosoma cruzi BH infected in CFW mouse assessed as increase in host mean survival time at 100 mg/kg, ip administered daily for 5 days starting 4 hrs post-parasite infection (reference value: 14 +/- 1 days); format: functional; conditions: route intraperitoneal
# [11] = test system: Trypanosoma cruzi; assay: Antiprotozoal activity against Trypanosoma cruzi Y infected in CFW mouse assessed as increase in host mean survival time at 25 mg/kg, po administered daily for 10 days starting 4 hrs post-parasite infection; format: functional
# [12] = Acute toxicity in ip dosed CFW mouse administered daily for 5 days; format: organism-based; conditions: in vivo
# [13] = Acute toxicity in po dosed CFW mouse administered daily for 5 days; format: organism-based; conditions: in vivo
# [14] = test system: Trypanosoma cruzi; assay: Antiprotozoal activity against Trypanosoma cruzi Peru infected in CFW mouse assessed as increase in host mean survival time at 25 mg/kg, po administered daily for 10 days starting 4 hrs post-parasite infection; format: functional
# [15] = test system: Trypanosoma cruzi; assay: Antiprotozoal activity against Trypanosoma cruzi Peru infected in CFW mouse assessed as increase in host mean survival time at 10 mg/kg, po administered daily for 10 days starting 4 hrs post-parasite infection; format: functional
# [16] = test system: Trypanosoma cruzi; assay: Antiprotozoal activity against high myocardial tissue infiltration leishmanial form of Trypanosoma cruzi BHC/10 infected in CFW mouse assessed as increase in host mean survival time at 5 mg/kg, po administered daily for 10 days starting 4 hrs post-parasite infection; format: functional
# [17] = test system: Trypanosoma cruzi; assay: Antiprotozoal activity against Trypanosoma cruzi BH infected in CFW mouse assessed as increase in host mean survival time at 50 mg/kg, ip administered daily for 5 days starting 4 hrs post-parasite infection (reference value: 14 +/- 1 days); format: functional; conditions: route intraperitoneal
# [18] = test system: Trypanosoma cruzi; assay: Antiprotozoal activity against Trypanosoma cruzi BH infected in CFW mouse assessed as increase in host mean survival time at 10 mg/kg, po administered daily for 5 days starting 4 hrs post-parasite infection (reference value: 14 +/- 1 days); format: functional
# [19] = test system: Trypanosoma cruzi; assay: Antiprotozoal activity against Trypanosoma cruzi Peru infected in CFW mouse assessed as increase in host mean survival time at 5 mg/kg, po administered daily for 10 days starting 4 hrs post-parasite infection; format: functional
# [20] = test system: Trypanosoma cruzi; assay: Antiprotozoal activity against Trypanosoma cruzi BH infected in CFW mouse assessed as increase in host mean survival time at 25 mg/kg, ip administered daily for 5 days starting 4 hrs post-parasite infection (reference value: 14 +/- 1 days); format: functional; conditions: route intraperitoneal
# [21] = test system: Trypanosoma cruzi; assay: Antiprotozoal activity against Trypanosoma cruzi BH infected in CFW mouse assessed as increase in host mean survival time at 100 mg/kg, po administered daily for 5 days starting 4 hrs post-parasite infection (reference value: 14 +/- 1 days); format: functional
# [22] = test system: Trypanosoma cruzi; assay: Antiprotozoal activity against Trypanosoma cruzi Y infected in CFW mouse assessed as increase in host mean survival time at 10 mg/kg, po administered daily for 10 days starting 4 hrs post-parasite infection; format: functional
SMILES,MST [1],MST [2],MST [4],MST [6],MST [7],MST [9],MST [10],LD50 at 120 h [12],LD50 at 120 h [13],MST [17],MST [18],MST [20],MST [21],other results
Cn1c([N+](=O)[O-])cnc1-c1nc(/C=N/N2CCS(=O)(=O)CC2)cs1,15 days,60 days,60 days,60 days,18.5 days,60 days,60 days,> 800 mg/kg,> 1600 mg/kg,60 days,14 days,60 days,60 days,MST [3]: 22 days; MST [5]: 37 days; MST [8]: 12 days; MST [11]: 60 days; MST [14]: 60 days; MST [15]: 60 days; MST [16]: 4 days; MST [19]: 35 days; MST [22]: 60 days
CC1CS(=O)(=O)CCN1/N=C/c1ccc([N+](=O)[O-])o1 (stereo unspecified) [NIFURTIMOX],0 days,60 days,60 days,60 days,2.5 days,60 days,60 days,,,60 days,4 days,60 days,60 days,MST [3]: 6.5 days; MST [5]: 0 days; MST [8]: 5.5 days; MST [11]: 40 days; MST [14]: 60 days; MST [15]: 60 days; MST [16]: 3 days; MST [19]: 0 days; MST [22]: 8 days
O=[N+]([O-])c1ccc(-c2nc(/C=N/N3CCOCC3)cs2)s1,0 days,60 days,0 days,0 days,0 days,0 days,60 days,> 800 mg/kg,> 1600 mg/kg,27 days,0 days,12 days,0 days,
O=[N+]([O-])c1cnc(-c2nc(/C=N/N3CCOCC3)cs2)s1,,0 days,,,,,4 days,> 800 mg/kg,> 1600 mg/kg,,,,,
O=[N+]([O-])c1cnc(-c2nc(/C=N/N3CCSCC3)cs2)s1,,1 days,,,,,4 days,> 800 mg/kg,> 1600 mg/kg,3 days,,0 days,0 days,
O=[N+]([O-])c1ccc(-c2nc(/C=N/N3CCCCCC3)cs2)o1,,2 days,,,,,39 days,> 800 mg/kg,> 1600 mg/kg,7 days,,4 days,0 days,
O=[N+]([O-])c1ccc(-c2nc(/C=N/N3CCCCC3)cs2)o1,,32 days,8 days,3 days,0 days,0 days,60 days,> 800 mg/kg,> 1600 mg/kg,60 days,,42 days,39 days,
Cn1c([N+](=O)[O-])cnc1-c1nc(/C=N/N2CCOCC2)cs1,,,0 days,0 days,,0 days,60 days,> 800 mg/kg,> 1600 mg/kg,7 days,,4 days,,
O=[N+]([O-])c1ccc(-c2nc(/C=N/N3CCS(=O)(=O)CC3)cs2)o1,,5 days,7 days,5 days,0 days,6 days,60 days,> 800 mg/kg,> 1600 mg/kg,44 days,0 days,18.5 days,3 days,
O=[N+]([O-])c1ccc(-c2nc(/C=N/N3CCSCC3)cs2)o1,,18 days,0 days,0 days,0 days,,60 days,> 800 mg/kg,> 1600 mg/kg,60 days,,18 days,4 days,
O=[N+]([O-])c1cnc(-c2nc(/C=N/N3CCCCC3)cs2)s1,,0 days,,,,,0 days,> 800 mg/kg,> 1600 mg/kg,,,,,
O=[N+]([O-])c1ccc(-c2nc(/C=N/N3CCOCC3)cs2)o1,0 days,60 days,41 days,27 days,0 days,19.5 days,60 days,> 800 mg/kg,> 1600 mg/kg,60 days,0 days,60 days,60 days,
